Source: ChEMBL document CHEMBL1201862, “PubChem BioAssay data set” (2004)
Calls of active or inactive are those of the source.

Columns and labels:
[1] = non-specific 3'UTR reporter inhibition in Clone20-Shn3RL – cell-based, Renilla luciferase, cherry-picked, counter-screen for Shn3 inhibitor project, dose response (AID 624133); type: functional
[2] = loss of viability in HepG2 cells – cell-based, CellTiter-Glo, cherry-picked, cytotoxicity control for Shn3 inhibitor project, dose response (AID 624134); type: functional
INS1 = test: INS-1E survival protection against cytokine death – cell-based, luminescence, retest, dose response (AID 449756); type: functional; conditions: Rattus norvegicus;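 note: cell death triggered by IL-1 beta plus TNF-alpha plus IFN-gamma mixture; protective hits raise ATP signal compared with cytokine alone wells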
[3] = decrease of insulin promoter-GFP reporter – imaging, high-content screening, mouse beta cells (AID 1628); type: functional; conditions: MIN6
[4] = MIN6 cell viability loss – mouse insulinoma, cytotoxicity control, dose response (AID 2122); type: functional;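 note: confirmatory high-throughput counterscreen run to flag cytotoxic compounds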
[5] = HEK-293T viability loss after treatment – luminescence, T-cell screen hits, cytotoxicity control for TCR NF-kB inhibitor project, dose response (AID 489026); type: functional, cell-based;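 note: cells exposed to compound about 14 hours before the viability readout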
[6] = reduction of Shn3 3'UTR-driven luciferase in osteoblasts – cell-based, Clone20 osteoblasts, firefly luciferase, cherry-picked, dose response (AID 624132); type: functional;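 note: firefly luciferase luminescence from reporter carrying the Shn3 3'UTR in osteoblasts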
[7] = molecular target: COUP transcription factor 2 (Homo sapiens, UniProt P24468); test: Luminescence-based cell-based high throughput dose response assay to identify inhibitors of COUP-TFII (NR2F2).; type: functional;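 note: HEK293 cells transiently cotransfected with COUP-TFII expression vector and reporter; luciferase reporter luminescence driven by COUP-TFII from the pX2-168 reporter plasmid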
[8] = molecular target: T1, Apoptotic protease-activating factor 1 (Homo sapiens, UniProt O14727); type: functional
T1 sequence (O14727 whole entry): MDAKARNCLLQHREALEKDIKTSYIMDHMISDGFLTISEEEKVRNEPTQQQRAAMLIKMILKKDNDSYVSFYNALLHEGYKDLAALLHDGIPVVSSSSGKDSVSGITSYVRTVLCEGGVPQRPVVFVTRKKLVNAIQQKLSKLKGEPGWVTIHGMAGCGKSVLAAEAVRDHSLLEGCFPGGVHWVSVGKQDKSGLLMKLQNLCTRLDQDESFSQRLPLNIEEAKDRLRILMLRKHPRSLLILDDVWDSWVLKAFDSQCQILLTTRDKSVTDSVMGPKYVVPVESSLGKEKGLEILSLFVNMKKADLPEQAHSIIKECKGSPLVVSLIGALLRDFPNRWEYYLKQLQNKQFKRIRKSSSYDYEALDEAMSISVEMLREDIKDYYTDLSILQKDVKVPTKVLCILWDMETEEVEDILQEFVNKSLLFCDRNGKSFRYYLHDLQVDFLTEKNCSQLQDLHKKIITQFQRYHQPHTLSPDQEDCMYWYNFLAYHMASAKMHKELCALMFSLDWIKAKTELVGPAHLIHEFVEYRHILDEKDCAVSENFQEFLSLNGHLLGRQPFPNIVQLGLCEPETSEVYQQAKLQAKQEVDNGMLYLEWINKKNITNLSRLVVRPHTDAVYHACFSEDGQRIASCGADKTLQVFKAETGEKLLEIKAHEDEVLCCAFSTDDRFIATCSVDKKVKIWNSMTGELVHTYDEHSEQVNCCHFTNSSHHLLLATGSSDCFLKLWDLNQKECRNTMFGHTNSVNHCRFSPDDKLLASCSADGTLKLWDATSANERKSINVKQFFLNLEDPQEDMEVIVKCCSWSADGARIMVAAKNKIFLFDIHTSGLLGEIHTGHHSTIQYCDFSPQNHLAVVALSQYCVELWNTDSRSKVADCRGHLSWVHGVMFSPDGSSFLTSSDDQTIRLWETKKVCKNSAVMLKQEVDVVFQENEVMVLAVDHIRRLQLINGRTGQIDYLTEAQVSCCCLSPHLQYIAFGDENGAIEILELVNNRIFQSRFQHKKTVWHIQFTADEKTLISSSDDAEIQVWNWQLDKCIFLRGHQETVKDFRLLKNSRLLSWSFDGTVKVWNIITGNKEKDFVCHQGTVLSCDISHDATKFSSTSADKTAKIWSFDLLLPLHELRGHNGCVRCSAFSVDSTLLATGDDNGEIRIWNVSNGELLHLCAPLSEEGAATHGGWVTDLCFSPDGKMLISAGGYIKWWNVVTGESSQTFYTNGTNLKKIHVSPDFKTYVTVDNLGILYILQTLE

Insulin-degrading enzyme [9] = molecular target: T2, Insulin-degrading enzyme (Homo sapiens, UniProt P14735); test: recombinant IDE activation, cell-free – biochemical, fluorescence polarization, counter-screen for IDE activator project, dose response (AID 588681)
T2 sequence (P14735 whole entry): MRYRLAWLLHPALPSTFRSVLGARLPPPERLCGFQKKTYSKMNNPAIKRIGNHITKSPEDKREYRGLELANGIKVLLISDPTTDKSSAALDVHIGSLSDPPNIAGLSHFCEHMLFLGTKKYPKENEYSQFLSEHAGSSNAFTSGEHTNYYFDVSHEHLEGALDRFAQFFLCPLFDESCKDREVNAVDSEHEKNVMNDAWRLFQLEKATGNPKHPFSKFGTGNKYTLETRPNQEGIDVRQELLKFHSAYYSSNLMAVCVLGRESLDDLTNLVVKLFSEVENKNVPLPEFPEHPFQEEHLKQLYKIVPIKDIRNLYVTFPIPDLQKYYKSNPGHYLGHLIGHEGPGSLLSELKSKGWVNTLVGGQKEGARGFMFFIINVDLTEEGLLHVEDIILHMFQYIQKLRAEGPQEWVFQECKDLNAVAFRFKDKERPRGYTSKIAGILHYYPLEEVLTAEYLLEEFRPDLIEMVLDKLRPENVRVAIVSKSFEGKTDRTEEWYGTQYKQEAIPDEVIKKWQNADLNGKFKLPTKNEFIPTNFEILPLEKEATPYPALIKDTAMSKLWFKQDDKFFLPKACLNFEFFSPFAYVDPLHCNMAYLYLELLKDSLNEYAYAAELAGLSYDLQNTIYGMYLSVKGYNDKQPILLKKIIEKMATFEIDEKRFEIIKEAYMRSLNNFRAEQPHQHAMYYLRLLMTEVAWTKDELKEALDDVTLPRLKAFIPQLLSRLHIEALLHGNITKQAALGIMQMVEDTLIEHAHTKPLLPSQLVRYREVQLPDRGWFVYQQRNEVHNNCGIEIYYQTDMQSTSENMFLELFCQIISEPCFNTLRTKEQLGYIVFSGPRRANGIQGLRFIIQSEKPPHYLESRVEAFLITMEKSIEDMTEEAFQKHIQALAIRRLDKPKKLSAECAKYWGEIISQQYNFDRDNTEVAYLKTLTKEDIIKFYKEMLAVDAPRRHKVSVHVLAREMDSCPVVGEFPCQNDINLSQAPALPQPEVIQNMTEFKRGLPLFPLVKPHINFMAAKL

[10] = general mammalian cell viability loss – activator set, cherry-pick, cytotoxicity control for miR-122 modulator project, dose response (AID 720690); type: functional, cell-based;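 note: HEK293T human cells scored for general mammalian cytotoxicity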
[11] = blockers of HIV-1 envelope-mediated cell-cell fusion – cherry-pick, dose response (AID 652057); type: functional, cell-based
[12] = blockers of HIV-1 ZM109 envelope-driven cell-cell fusion – HeLa effector, CEM target cells, luciferase, cherry-pick, dose response (AID 652058); type: functional, cell-based;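 note: luciferase signal from HIV-1 Env mediated cell-cell fusion of effector and target cells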
[13] = off-target signal loss in HeLa-CEM21 co-culture – HeLa F-luc CTL cells, cherry-picked, counter-screen for HIV-1 Env fusion inhibitor project, dose response (AID 652040); type: functional, cell-based;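 note: potency for signal decrease marking cytotoxic or nonspecific inhibition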
[14] = activation of miR-122 Renilla sensor silencing – cell-based, Huh7 psiCHECK-miR122, Renilla luciferase, cherry-picked, dose response (AID 651956); type: functional;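 note: huh7 hepatoma cells stably carrying a psiCHECK-2 miR-122 sensor plasmid; renilla luciferase signal reporting endogenous miR-122 activity after 48 h compound exposure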
[15] = HIV-1 AD8 envelope cell-cell fusion blockers – cherry-pick, dose response (AID 652062); type: functional, cell-based;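 note: luciferase signal from cell-cell fusion driven by HIV-1 clade B AD8 Env; potency is for inhibitors of fusion seen as a drop in luminescence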
Insulin-degrading enzyme [16] = molecular target: T2, Insulin-degrading enzyme; test: cellular IDE activation of Abeta substrate cleavage – fluorescence polarization, HEK cells, dose response (AID 588439); type: functional, cell-based
[17] = general mammalian cell viability loss – inhibitor set, cherry-pick, set 2, cytotoxicity control for miR-122 modulator project, dose response (AID 720697); type: functional, cell-based
[18] = molecular target: T3, Ubiquitin-conjugating enzyme E2 N (Homo sapiens, UniProt P61088); type: functional;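 note: Dose-response confirmation in a TR-FRET assay detecting UBC13-driven polyubiquitin chain formation, inhibition measured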
T3 sequence (P61088 whole entry): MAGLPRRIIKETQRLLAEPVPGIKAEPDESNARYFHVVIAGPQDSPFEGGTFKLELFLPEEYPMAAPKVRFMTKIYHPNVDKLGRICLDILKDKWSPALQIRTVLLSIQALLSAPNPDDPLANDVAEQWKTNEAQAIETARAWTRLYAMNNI

HEK293 [19] = test: membrane integrity loss in HEK cells – cell-based, fluorescence, cytotoxicity control for IDE activator project, dose response (AID 588440); type: functional; conditions: Homo sapiens;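 note: cytotoxicity by LDH release measuring loss of membrane integrity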
[20] = viability loss in CEM21 cells – cell-based, CellTiter-Glo luminescence, cherry-picked, cytotoxicity control for viral fusion inhibitor project, dose response (AID 652042); type: functional;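 note: potency for signal decrease meaning cytotoxicity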
HEK293 [21] = test: optical interference in Abeta FP readout, dose response, artefact control for IDE activator project, biochemical, fluorescence polarization (AID 588442); type: functional, cell-based; conditions: Homo sapiens
[22] = molecular target: Potassium channel subfamily K member 3 (Homo sapiens, UniProt O14649); test: inhibition of human KCNK3 channel flux – CHO cells, FluxOR thallium flux, SAR follow-up (AID 652212); type: functional
[23] = molecular target: Potassium channel subfamily K member 9 (Homo sapiens, UniProt Q9NPC2); test: KCNK9 flux blockade, concentration-response – cell-based, FluxOR thallium flux, selectivity assay for TASK1 inhibitor project, SAR follow-up (AID 652211); type: functional;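 note: potency is for inhibitors of the channel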
[24] = molecular target: Endoplasmic reticulum aminopeptidase 1 (Homo sapiens, UniProt Q9NZ08); test: inhibition of human ERAP1 enzyme activity – biochemical, cherry-pick, set 2, plate reader, dose response (AID 743314)
[25] = viability loss in HEK293T cells – cell-based, CellTiter-Glo luminescence, dry powder, set 6, cytotoxicity control, dose response (AID 651949); type: functional; conditions: HEK293
[26] = molecular target: T4, Rac GTPase-activating protein 1 (Homo sapiens, UniProt Q9H0H5); test: blockers of MgcRacGAP-driven Rac1 GTP hydrolysis – biochemical, ADP Hunter fluorescence, primary and confirmatory, confirmation (AID 624330); type: functional
T4 sequence (Q9H0H5 whole entry): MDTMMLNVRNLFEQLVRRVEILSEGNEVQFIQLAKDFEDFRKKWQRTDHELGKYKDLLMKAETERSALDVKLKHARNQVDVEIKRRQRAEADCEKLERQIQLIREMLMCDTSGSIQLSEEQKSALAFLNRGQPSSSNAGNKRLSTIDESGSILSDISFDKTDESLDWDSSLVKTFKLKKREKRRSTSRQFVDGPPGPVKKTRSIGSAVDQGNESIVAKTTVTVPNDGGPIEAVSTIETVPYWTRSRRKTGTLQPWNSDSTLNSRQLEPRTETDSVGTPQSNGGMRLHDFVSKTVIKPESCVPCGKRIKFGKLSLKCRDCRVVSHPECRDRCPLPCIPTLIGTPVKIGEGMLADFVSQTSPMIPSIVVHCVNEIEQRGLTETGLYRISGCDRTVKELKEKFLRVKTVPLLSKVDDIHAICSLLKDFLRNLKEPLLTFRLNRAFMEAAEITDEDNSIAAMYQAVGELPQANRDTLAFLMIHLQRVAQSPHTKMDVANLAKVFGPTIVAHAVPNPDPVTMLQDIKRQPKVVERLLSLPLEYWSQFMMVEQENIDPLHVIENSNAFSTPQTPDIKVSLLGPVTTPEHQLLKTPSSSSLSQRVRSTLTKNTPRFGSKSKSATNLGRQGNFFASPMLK

fMet-Leu-Phe receptor = fMet-Leu-Phe receptor (Homo sapiens, UniProt P21462); test: formyl peptide receptor binders – dose response (AID 519); type: functional
[27] = Mycobacterium tuberculosis BioA enzyme inhibitor Measured in Biochemical System Using Plate Reader - 2163-02_Inhibitor_Dose_DryPowder_Activity.
Major prion protein = Major prion protein (Homo sapiens, UniProt P04156); type: functional, cell-based

CCC(O)C1CCN(C(=O)c2cc(COc3ccc4ncccc4c3)on2)CC1 (stereo unspecified)
AC50 [1]: 10.9 µM (active)
AC50 [2]: 1.75 µM (active)
AC50 (INS1): 3.38 µM (active)
IC50 [3]: 0.571 µM (active)
IC50 [4]: 0.294 µM (active)
IC50 [5]: > 80 µM (inactive)
AC50 [6]: 0.505 µM (active)
IC50 [7]: 4.46 µM (active)

FC(F)(F)c1cc(CCN2CCNC[C@@H]2CC2CCCCC2)cc(C(F)(F)F)c1
IC50 [8]: 62.5 µM (active)
EC50 (Insulin-degrading enzyme [9]): > 54.7 µM (inactive)
AC50 [10]: 7.47 µM (active)
AC50 [11]: 7.14 µM (active)
AC50 [12]: 11.5 µM (active)
AC50 [13]: 11.2 µM (active)
AC50 [14]: 23.8 µM (active)
AC50 [15]: 17.6 µM (active)
EC50 (Insulin-degrading enzyme [16]): 17.6 µM (inactive)
AC50 [17]: 8.59 µM (active)
IC50 [18]: > 20 µM (inactive)
IC50 (HEK293 [19]): 9.68 µM (active)
AC50 [20]: 7.74 µM (active)
EC50 (HEK293 [21]): > 54.7 µM (inactive)

COc1c(F)cccc1C(=O)Nc1cccc(NC(=O)c2cccc(C)c2)c1
IC50 [22]: 0.013 µM (active)
IC50 [23]: 0.37 µM (active)

CCc1cc(=O)oc2c(CN3CCN(C)CC3)c(O)ccc12
AC50 [24]: 7.3 µM (active)

c1ccc(CNCCSc2nnc(-c3ccccc3)o2)cc1
AC50 [25]: > 52 µM (inactive)

CC(C)(C)CC(=O)Nc1ccc(Nc2ccccc2)cc1
IC50 [26]: 88.6 µM (active)
Ki (fMet-Leu-Phe receptor): > 66.7 µM (inactive)

Cc1cccc(/C=C(\CCC(=O)O)c2nc3ccccc3s2)c1
AC50 [27]: 14.5 µM (active)

CCc1nc(SCC(=O)N2c3ccccc3Sc3ccccc32)c2ccccc2n1
IC50 (cells): > 138 µM (inactive)
IC50 (Major prion protein): 1.84 µM (active)
